Assay results: ChEMBL document CHEMBL2331300, “Inhibition of enterovirus 71 infections and viral IRES activity by Fructus gardeniae and geniposide” (2013)

Experiments:
Enterovirus A71 [1] = assay: Antiviral activity against EV71 infected in human RD cells assessed as cell survival rate at 1 to 2 mg/ml after 24 hrs by WST-1 assay; type: functional
RD [2] = assay: Inhibitory activity of EMCV IRES co-transfected with EV71 5' UTR in human RD cells at 2 mg/ml after 24 hrs by luciferase reporter gene assay; type: cell-based; settings: Encephalomyocarditis virus
RD [3] = assay: Inhibitory activity of EV71 IRES co-transfected with EMCV IRES in human RD cells at 2 mg/ml after 24 hrs by luciferase reporter gene assay; type: cell-based; settings: Enterovirus A71
Enterovirus A71 [4] = assay: Antiviral activity against EV71 infected in human RD cells assessed as viral RNA transcript level at 2 mg/ml treated 24 hrs prior to infection measured after 24 hrs by real time RT-PCR analysis; type: functional
Enterovirus A71 [5] = assay: Antiviral activity against EV71 infected in human RD cells assessed as viral RNA transcript level at 1 mg/ml treated 24 hrs prior to infection measured after 24 hrs by real time RT-PCR analysis; type: functional
Enterovirus A71 [6] = assay: Antiviral activity against EV71 infected in human RD cells assessed as inhibition of viral infection at 2 mg/ml treated 24 hrs prior to infection measured after 72 hrs by WST-1 assay; type: functional; settings: Enterovirus A

Row | Compound | Survival (Enterovirus A71 [1]) | inhibition (RD [2]) [%] | inhibition (RD [3]) [%] | Activity (Enterovirus A71 [4]) [%] | Activity (Enterovirus A71 [5]) [%] | inhibition at 2000 µg/mL (Enterovirus A71 [6]) [%]
1 | O=C(O)C1=CO[C@@H](O[C@@H]2O[C@H](CO)[C@@H](O)[C@H](O)[C@H]2O)[C@@H]2C(CO)=CC[C@H]12 [GENIPOSIDIC ACID] | >=80% | – | – | – | – | –
2 | COC(=O)C1=CO[C@@H](O[C@@H]2O[C@H](CO)[C@@H](O)[C@H](O)[C@H]2O)[C@@H]2C(CO)=CC[C@H]12 [GENIPOSIDE] | >=80% | 50 | 50 | 20 | 60 | 80
3 | COC(=O)C1=CO[C@@H](O)[C@@H]2C(CO)=CC[C@H]12 [GENIPIN] | >=80% | – | – | – | – | –
4 | CC(/C=C/C=C(\C)C(=O)O[C@@H]1O[C@H](CO[C@@H]2O[C@H](CO)[C@@H](O)[C@H](O)[C@H]2O)[C@@H](O)[C@H](O)[C@H]1O)=C\C=C\C=C(C)\C=C\C=C(/C)C(=O)O[C@@H]1O[C@H](CO[C@@H]2O[C@H](CO)[C@@H](O)[C@H](O)[C@H]2O)[C@@H](O)[C@H](O)[C@H]1O [CROCIN] | >=80% | – | – | – | – | –
